Patent US20250368633A1, “AZEPINE FUSED RING COMPOUND AS RIPK1 INHIBITOR AND USE THEREOF” (ARTIVILA BIOPHARMA, priority 2022, published 2025)

What follows are compounds tested on U937 cells (assay: EC50 of necroptosis inhibition in U937 cells (TSZ-induced, CellTiter-Glo)). Conditions: Homo sapiens, U-937; TSZ (hTNF-α, SM-164, Z-VAD-FMK) 20 hours; 10 concentration points; read-out: EC50 intervals of necroptosis inhibition in U937 cells.
Format: cell-based
Method in brief: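 U937 cells pretreated 15 min with compound (10-point, 1:3 series), then necroptosis induced by TSZ (hTNF-α, SM-164, Z-VAD-FMK) for 20 h at 37 °C. Viability measured as ATP by CellTiter-Glo luminescence; inhibition normalised to untreated and TSZ-only wells, EC50 from four-parameter fit.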

Row | SMILES | EC50 [nM]
1 | CN1C(=O)[C@@H](NC(=O)C(=O)NCCc2ccccc2)COc2ccc(C#CCN3CCOCC3)cc21 [Example 48, (S)—N^1-(5-methyl-7-(3-morpholinoprop-1-yn-1-yl)-4-oxo-2,3,4,5-tetrahydrobenzo[b][1,4]oxazepin-3-yl)-N^2-phenethyloxalamide] | < 100
2 | CN1C(=O)[C@@H](NC(=O)C(=O)NCCc2ccccc2)COc2ccc(C#CCCN)cc21 [Example 50, (S)—N^1-(7-(4-aminobut-1-yn-1-yl)-5-methyl-4-oxo-2,3,4,5-tetrahydrobenzo[b][1,4]oxazepin-3-yl)-N^2-phenethyloxalamide] | < 100
3 | CN1C(=O)[C@@H](NC(=O)C(=O)NCCc2ccccc2)COc2ccc(C#CCCNS(C)(=O)=O)cc21 [Example 51, (S)—N^1-(5-methyl-7-(4-(methylsulfonamido)but-1-yn-1-yl)-4-oxo-2,3,4,5-tetrahydrobenzo[b][1,4]oxazepin-3-yl)-N^2-phenethyloxalamide] | < 100
4 | COCC#Cc1ccc2c(c1)N(C)C(=O)[C@@H](NC(=O)C(=O)NCCc1ccccc1)CO2 [Example 52, (S)—N^1-(7-(3-methoxyprop-1-yn-1-yl)-5-methyl-4-oxo-2,3,4,5-tetrahydrobenzo[b][1,4]oxazepin-3-yl)-N^2-phenethyloxalamide] | < 100
5 | CN1C(=O)C(NC(=O)C(=O)NCCc2ccccc2)CCc2ccc(Br)cc21 (centres unmarked) [Example 61, N^1-(8-bromo-1-methyl-2-oxo-2,3,4,5-tetrahydro-1H-benzo[b]azepin-3-yl)-N^2-phenethyloxalamide] | < 100
6 | CN1C(=O)C(NC(=O)C(=O)NCCc2ccccc2)CCc2ccc(C#CC3CC3)cc21 (centres unmarked) [Example 62, N^1-(8-(cyclopropylethynyl)-1-methyl-2-oxo-2,3,4,5-tetrahydro-1H-benzo[b]azepin-3-yl)-N^2-phenethyloxalamide] | < 100
7 | CN1C(=O)C(NC(=O)C(=O)NCCc2ccccc2)CCc2ccc(C#CCCO)cc21 (centres unmarked) [Example 65, N^1-(8-(4-hydroxybut-1-yn-1-yl)-1-methyl-2-oxo-2,3,4,5-tetrahydro-1H-benzo[b]azepin-3-yl)-N^2-phenethyloxalamide] | < 100
8 | CN1C(=O)C(NC(=O)C(=O)NCCc2ccccc2)CCc2ccc(C#CC3CCNCC3)cc21 (centres unmarked) [Example 66, N^1-(1-methyl-2-oxo-8-(piperidin-4-ylethynyl)-2,3,4,5-tetrahydro-1H-benzo[b]azepin-3-yl)-N^2-phenethyloxalamide] | < 100
9 | CN1C(=O)[C@@H](NC(=O)C(=O)NCCc2ccccc2)COc2ccc(C#CC3CCN(CC#N)CC3)cc21 [Example 74, (S)—N^1-(7-((1-(cyanomethyl)piperidin-4-yl)ethynyl)-5-methyl-4-oxo-2,3,4,5-tetrahydrobenzo[b][1, 4]oxazepin-3-yl)-N^2-phenethyloxalamide] | < 100
10 | CN1C(=O)[C@@H](NC(=O)C(=O)NCCc2ccccc2)COc2ccc(C#CC3COC3)cc21 [Example 76, (S)—N^1-(5-methyl-7-(oxetan-3-ylethynyl)-4-oxo-2,3,4,5-tetrahydrobenzo[b][1,4]oxazepin-3-yl)-N^2-phenethyloxalamide] | < 100
11 | CN1C(=O)[C@H](NC(=O)C(=O)NCCc2ccccc2)COc2ccc(C#CC3(O)COC3)cc21 [Example 77, (R)—N^1-(7-((3-hydroxyoxetan-3-yl)ethynyl)-5-methyl-4-oxo-2,3,4,5-tetrahydrobenzo[b][1,4]oxazepin-3-yl)-N^2-phenethyloxalamide] | < 100
12 | COC1(C#Cc2ccc3c(c2)N(C)C(=O)[C@@H](NC(=O)C(=O)NCCc2ccccc2)CO3)COC1 [Example 78, (S)—N^1-(7-((3-methoxyoxetan-3-yl)ethynyl)-5-methyl-4-oxo-2,3,4,5-tetrahydrobenzo[b][1,4]oxazepin-3-yl)-N^2-phenethyloxalamide] | < 100
13 | CN1C(=O)[C@@H](NC(=O)C(=O)NCCc2ccccc2)COc2ccc(C#CCC3(O)COC3)cc21 [Example 79, (S)—N^1-(7-(3-(3-hydroxyoxetan-3-yl)prop-1-yn-1-yl)-5-methyl-4-oxo-2,3,4,5-tetrahydrobenzo[b][1,4]oxazepin-3-yl)-N^2-phenethyloxalamide] | < 100
14 | CN1C(=O)[C@@H](NC(=O)C(=O)NCCc2ccccc2)COc2ccc(C#CC3(O)CCOC3)cc21 (stereo partly drawn) [Example 80, N^1-((3S)-7-((3-hydroxytetrahydrofuran-3-yl)ethynyl)-5-methyl-4-oxo-2,3,4,5-tetrahydrobenzo[b][1,4]oxazepin-3-yl)-N^2-phenethyloxalamide] | < 100
15 | CN1C(=O)[C@@H](NC(=O)C(=O)NCCc2ccccc2)COc2ccc(C#CCN3CCC(O)CC3)cc21 [Example 81, (S)—N^1-(7-(3-(4-hydroxypiperidin-1-yl)prop-1-yn-1-yl)-5-methyl-4-oxo-2,3,4,5-tetrahydrobenzo[b][1,4]oxazepin-3-yl)-N^2-phenethyloxalamide] | < 100
16 | CN1C(=O)[C@@H](NC(=O)C(=O)NCCc2ccccc2)COc2ccc(C#CCN3C(=O)CCC3=O)cc21 [Example 84, (S)—N^1-(7-(3-(2,5-dioxopyrrolidin-1-yl)prop-1-yn-1-yl)-5-methyl-4-oxo-2,3,4,5-tetrahydrobenzo[b][1,4]oxazepin-3-yl)-N^2-phenethyloxalamide] | < 100
17 | CN1C(=O)[C@@H](NC(=O)C(=O)NCCc2ccccc2)COc2ccc(C#CCN3CCNC(=O)C3)cc21 [Example 85, (S)—N^1-(5-methyl-4-oxo-7-(3-(3-oxopiperazin-1-yl)prop-1-yn-1-yl)-2,3,4,5-tetrahydrobenzo[b][1, 4]oxazepin-3-yl)-N^2-phenethyloxalamide] | < 100
18 | CN1C(=O)[C@@H](NC(=O)C(=O)NCCc2ccccc2)COc2ccc(C#CCNC(=O)OC(C)(C)C)cc21 [Example 86, tert-butyl (S)-(3-(5-methyl-4-oxo-3-(2-oxo-2-(phenethylamino)acetamido)-2,3,4,5-tetrahydrobenzo[b][1,4]oxazepin-7-yl)prop-2-yn-1-yl)carbamate] | < 100
19 | CN1C(=O)[C@@H](NC(=O)C(=O)NCCc2ccccc2)COc2ccc(C#CCNC(=O)CO)cc21 [Example 88, (S)—N^1-(7-(3-(2-hydroxyacetamido)prop-1-yn-1-yl)-5-methyl-4-oxo-2,3,4,5-tetrahydrobenzo[b][1, 4]oxazepin-3-yl)-N^2-phenethyloxalamide] | < 100
20 | C=CC(=O)NCC#Cc1ccc2c(c1)N(C)C(=O)[C@@H](NC(=O)C(=O)NCCc1ccccc1)CO2 [Example 89, (S)—N^1-(7-(3-acrylamidoprop-1-yn-1-yl)-5-methyl-4-oxo-2,3,4,5-tetrahydrobenzo[b][1,4]oxazepin-3-yl)-N^2-phenethyloxalamide] | < 100
21 | CN1C(=O)[C@@H](NC(=O)C(=O)NCCc2ccccc2)COc2ccc(C#CC3CN(C=O)C3)cc21 [Example 91, (S)—N^1-(7-((1-formylazetidin-3-yl)ethynyl)-5-methyl-4-oxo-2,3,4,5-tetrahydrobenzo[b][1,4]oxazepin-3-yl)-N^2-phenethyloxalamide] | < 100
22 | CN1C(=O)[C@@H](NC(=O)C(=O)NCCc2ccccc2)COc2ccc(C#CC3(O)CN(C=O)C3)cc21 [Example 92, (S)—N^1-(7-((1-formyl-3-hydroxyazetidin-3-yl)ethynyl)-5-methyl-4-oxo-2,3,4,5-tetrahydrobenzo[b][1,4]oxazepin-3-yl)-N^2-phenethyloxalamide] | < 100
23 | CCOC(=O)CCC#Cc1ccc2c(c1)N(C)C(=O)[C@@H](NC(=O)C(=O)NCCc1ccccc1)CO2 [Example 94, ethyl (S)-5-(5-methyl-4-oxo-3-(2-oxo-2-(phenethylamino)acetamido)-2,3,4,5-tetrahydrobenzo[b][1,4]oxazepin-7-yl) pent-4-ynoate] | 100 to 500
24 | CN1C(=O)[C@@H](NC(=O)C(=O)NCc2ccccc2)COc2ccc(C#CCn3ccnc3)cc21 [Example 104, (S)—N^1-(7-(3-(1H-imidazol-1-yl)prop-1-yn-1-yl)-5-methyl-4-oxo-2,3,4,5-tetrahydrobenzo[b][1,4]oxazepin-3-yl)-N^2-benzyloxalamide] | < 100
25 | CN1C(=O)[C@@H](NC(=O)C(=O)NCc2ccccc2)COc2ccc(C#CCN3CCOCC3)cc21 [Example 106, (S)—N^1-benzyl-N^2-(5-methyl-7-(3-morpholinoprop-1-yn-1-yl)-4-oxo-2,3,4,5-tetrahydrobenzo[b][1, 4]oxazepin-3-yl)oxalamide] | < 100
26 | CN1C(=O)[C@@H](NC(=O)C(=O)NCc2ccccc2)COc2ccc(C#CCN3CCNC(=O)C3)cc21 [Example 107, (S)—N^1-benzyl-N^2-(5-methyl-4-oxo-7-(3-(3-oxopiperazin-1-yl)prop-1-yn-1-yl)-2,3,4,5-tetrahydrobenzo[b][1,4]oxazepin-3-yl)oxalamide] | < 100
27 | CN1C(=O)[C@H](NC(=O)C(=O)NCCc2cccc(F)c2)COc2ccc(C#CCCO)cc21 [Example 109, (R)—N^1-(3-fluorophenethyl)-N^2-(7-(4-hydroxybut-1-yn-1-yl)-5-methyl-4-oxo-2,3,4,5-tetrahydrobenzo[b][1,4]oxazepin-3-yl)oxalamide] | < 100
28 | CN1C(=O)[C@@H](NC(=O)C(=O)NCCc2cccc(F)c2)COc2ccc(C#CC3(O)COC3)cc21 [Example 110, (S)—N^1-(3-fluorophenethyl)-N^2-(7-((3-hydroxyoxetan-3-yl)ethynyl)-5-methyl-4-oxo-2,3,4,5-tetrahydrobenzo[b][1,4]oxazepin-3-yl)oxalamide] | < 100
29 | CN1C(=O)[C@@H](NC(=O)C(=O)NCCc2cccc(F)c2)COc2ccc(C#CCN3CC[C@@H](O)C3)cc21 [Example 114, N^1-(3-fluorophenethyl)-N^2-((S)-7-(3-((R)-3-hydroxypyrrolidin-1-yl)prop-1-yn-1-yl)-5-methyl-4-oxo-2,3,4,5-tetrahydrobenzo[b][1,4]oxazepin-3-yl)oxalamide] | < 100
